In patent US20230346961A1, “GLP-1 AND GIP RECEPTOR CO-AGONISTS” (Novo Nordisk A/S, priority 2020, published 2023):
pEC50: −log10 of the molar value. Starred links: 1 amine or outer side, 2 acyl side, 3 side chain; linkers in the order of their positions; H or OH if unused. Non-standard residues stand in square brackets, D forms with d. Residues, ends and D or L forms follow the SMILES beside them. Groups on a side chain read outwards from the residue. *: point of attachment. C18 diacid = O=C(O)CCCCCCCCCCCCCCCCC(=O)*; γGlu = O=C(O)[C@H](CCC(=O)[*:2])N[*:1]; εLys = N[C@@H](CCCCN[*:1])C(=O)[*:2]; Aib = CC(C)(N)C(=O)O

Tests used:
[1] = test system: diet-induced obese (DIO) mice; assay: Pharmacodynamic study in DIO mice: IPGTT (intraperitoneal glucose tolerance test); format: in vivo, C57BL/6J male mice; conditions: 30 days, glucose 2 g/kg i.p., mean ± SEM
Protocol: On the day of the glucose tolerance test, animals were fasted for 4 h. Food was removed and animals were transferred to fresh cages. Animals had access to water but not to food. Tail blood glucose levels were measured, and mice were injected (t=0) with an intra-peritoneal (i.p.) glucose load of 2 g/kg (200 mg/ml glucose solution, dose volume 10 ml/kg). Tail blood glucose levels were measured at times 0, 15, 30, 60, 90, 120 minutes following the i.p. glucose load. Stratification of the animals during the IPGTT was such that for example two mice from group 1 are dosed followed by two mice from group 2, 3, 4, before the next two mice from group 1, 2, 3 etc. were handled. This was to allow for equal distribution of “time of day” throughout all groups.

[2] = test system: diet-induced obese (DIO) mice; assay: Pharmacodynamic study in DIO mice: body weight and food intake; format: in vivo, C57BL/6J male mice
Protocol: The purpose of this example is to assess the in vivo effect of select compounds on pharmacodynamic parameters in diet-induced obese (DIO) mice. The animals were treated once daily via subcutaneous injection with a liquid formulation of the test compound to assess effects on body weight, foot intake, and glucose tolerance. For comparison, the known GLP-1R/GIPR co-agonist tirzepatide and a surrogate of the GLP-1R agonist semaglutide were used as references. The semaglutide surrogate has the same pharmacological properties of semaglutide but a slightly modified structure in which the γGlu element of the substituent has been changed from the L-isomer to the D-isomer.
C57BL/6J male mice were purchased from Jackson Laboratories at approximately 8 weeks of age. Mice were group housed and fed a high-fat, high-sugar diet from Research Diets (D12331). Mice were maintained on this diet for 12 weeks prior to initializing the pharmacology studies. Mice exceeding a measured body weight of 50 grams were considered diet-induced obese (DIO) and included in pharmacology studies. Mice were exposed to a controlled 12 h:12 h light:dark cycle at ambient room temperature (22° C.) with ab libitum access to food and water. Studies were approved by and performed according to the guidelines of the Institutional Animal Care and Use Committee of the University of Cincinnati.
Animals were dosed once daily, subcutaneously with either vehicle or test compound. All injections occurred during the middle of the light phase at a fixed volume of 2-5 microliters per gram body weight.
All compounds in the study were formulated in the following buffer: 50 mM phosphate; 70 mM sodium chloride; 0.05% Tween-80, pH 7.4. Dosing solutions were formulated in glass vials and stored at 2-8° C. Dosing solutions were brought to room temperature before dosing and returned to 2-8° C. after dosing.
DIO mice were distributed into groups (n=8 per group) such that statistical variations in the mean and standard deviations of fat mass and body weight were minimized between groups. The animals were grouped to receive treatment as follows: Vehicle, tirzepatide, semaglutide surrogate or a GLP-1/GIP receptor co-agonists as described herein, where vehicle is 50 mM phosphate, 70 mM sodium chloride; 0.05% Tween-80, pH 7.4. The test compounds were dissolved in the vehicle, to stock concentrations of 100 μM, then diluted 50-200 fold in the vehicle to achieve the desired dosing solution concentrations. Animals were dosed subcutaneously once daily in the morning for each day of treatment with dosing solution at a volume of 2-5 μL per gram of body weight as necessary to achieve the desired dose (eg 0.3 nmol/kg, 1.0 nmol/kg, or 3.0 nmol/kg).
Body weight (BW) and food intake were measured immediately prior to dosing each day. The percent change in body was calculated individually for each mouse based on initial body weight prior to the first injection.

mouse GLP-1 receptor = molecular target: T1, mouse GLP-1 receptor (Mus musculus, UniProt O35659)
T1 sequence (O35659 22-463): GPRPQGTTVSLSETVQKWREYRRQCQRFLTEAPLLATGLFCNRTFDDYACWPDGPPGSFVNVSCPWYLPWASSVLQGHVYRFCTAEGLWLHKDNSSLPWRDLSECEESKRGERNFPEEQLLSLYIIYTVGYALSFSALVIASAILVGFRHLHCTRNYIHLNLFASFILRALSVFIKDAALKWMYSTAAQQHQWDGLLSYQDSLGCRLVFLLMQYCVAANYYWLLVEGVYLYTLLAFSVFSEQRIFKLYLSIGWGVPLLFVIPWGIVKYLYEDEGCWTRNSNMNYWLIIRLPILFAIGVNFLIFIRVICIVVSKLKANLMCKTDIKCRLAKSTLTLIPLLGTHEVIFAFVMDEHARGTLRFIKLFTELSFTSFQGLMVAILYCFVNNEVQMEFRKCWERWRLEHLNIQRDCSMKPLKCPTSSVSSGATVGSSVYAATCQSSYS

human glucagon receptor = human glucagon receptor (Homo sapiens, UniProt P47871); assay: cell-based
Chain of human glucagon receptor (P47871 26-477): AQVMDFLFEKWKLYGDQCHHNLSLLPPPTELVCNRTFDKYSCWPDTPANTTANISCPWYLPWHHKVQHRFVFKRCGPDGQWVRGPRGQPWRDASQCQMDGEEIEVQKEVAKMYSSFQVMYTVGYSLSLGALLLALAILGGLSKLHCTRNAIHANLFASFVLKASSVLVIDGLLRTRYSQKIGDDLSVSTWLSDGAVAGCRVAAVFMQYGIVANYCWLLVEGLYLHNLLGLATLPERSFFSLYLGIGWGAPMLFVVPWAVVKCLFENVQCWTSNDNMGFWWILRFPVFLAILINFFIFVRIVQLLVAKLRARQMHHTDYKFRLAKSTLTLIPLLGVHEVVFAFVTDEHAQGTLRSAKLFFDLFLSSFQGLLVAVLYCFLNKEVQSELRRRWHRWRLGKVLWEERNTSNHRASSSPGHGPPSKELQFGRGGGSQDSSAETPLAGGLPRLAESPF

[3] = molecular target: T2, mouse glucagon-like peptide 1 receptor (mouse, UniProt O35659 22-463); assay: cell-based or functional assay
T2 sequence (looked up): T1 sequence (O35659 22-463)

[4] = DIO mice, 0.3 nmol/kg s.c. once daily, 30 days, mean ± SEM
[5] = DIO mice, 1.0 nmol/kg s.c. once daily, 30 days, mean ± SEM
[6] = DIO mice, 3.0 nmol/kg s.c. once daily, 10 days, mean ± SEM, n = 8
[7] = DIO mice, 3.0 nmol/kg s.c. once daily, 30 days, mean ± SEM

For `CC[C@H](C)[C@H](NC(=O)[C@H](CO)NC(=O)[C@H](Cc1ccc(O)cc1)NC(=O)[C@H](CC(=O)O)NC(=O)[C@H](CO)NC(=O)[C@@H](NC(=O)[C@H](Cc1ccccc1)NC(=O)[C@@H](NC(=O)CNC(=O)[C@H](CCC(=O)O)NC(=O)C(C)(C)NC(=O)[C@@H](N)Cc1ccc(O)cc1)[C@@H](C)O)[C@@H](C)O)C(=O)N[C@@H](Cc1ccc(O)cc1)C(=O)N[C@@H](CC(C)C)C(=O)N[C@@H](CC(=O)O)C(=O)N[C@@H](CCCCN)C(=O)N[C@@H](CCC(N)=O)C(=O)N[C@@H](C)C(=O)N[C@@H](C)C(=O)NC(C)(C)C(=O)N[C@@H](CCCCNC(=O)[C@@H](N)CCCCNC(=O)[C@@H](N)CCCCNC(=O)CC[C@H](NC(=O)CCCCCCCCCCCCCCCCC(=O)O)C(=O)O)C(=O)N[C@@H](Cc1ccccc1)C(=O)N[C@H](C(=O)N[C@@H](CC(N)=O)C(=O)N[C@@H](Cc1c[nH]c2ccccc12)C(=O)N[C@@H](CC(C)C)C(=O)N[C@@H](CC(C)C)C(=O)N[C@@H](C)C(=O)NCC(=O)NCC(=O)N1CCC[C@H]1C(=O)N[C@@H](CO)C(=O)N[C@@H](CO)C(=O)NCC(=O)N[C@@H](C)C(=O)N1CCC[C@H]1C(=O)N1CCC[C@H]1C(=O)N1CCC[C@H]1C(=O)N[C@@H](CO)C(N)=O)C(C)C` [Compound 9] (H-Y[Aib]EGTFTSDYSIYLDKQAA[Aib]K([εLys-εLys-γGlu-C18 diacid])FVNWLLAGGPSSGAPPPS-NH2; N-terminus assumed), the “iAUC, IPGTT Day 31” value ([1]; 0.3 nmol/kg s.c. once daily) was 14979 ± 3423 mg·min/dL, the “iAUC, IPGTT Day 31” value ([1]; 1.0 nmol/kg s.c. once daily) was 7714 ± 1722 mg·min/dL and the “iAUC, IPGTT Day 31” value ([1]; 3.0 nmol/kg s.c. once daily) was 4073 ± 1764 mg·min/dL. For the same compound, the “Absolute BW Day 0” value ([2]; DIO mice, 0.3 nmol/kg group, baseline Day 0 (30-day study), mean ± SEM) was 66.5 ± 2.6 grams, the “Absolute BW Day 31” value [2, 4] was 66.9 ± 3.2 grams and the “Change in BW Day 31” value [2, 4] was 3.4 ± 1.7%. The “Cumulative food intake Day 31” value ([2]; DIO mice, 0.3 nmol/kg s.c. once daily, 30 days, mean ± SEM, n = 2) was 87.4 ± 5.9 grams, the “Performance compared with semaglutide surrogate in all parameters (in words)” value ([2]; DIO mice, 1.0 nmol/kg and 3.0 nmol/kg doses, 30 days) was “superior performance to semaglutide surrogate” and the “Absolute BW Day 0” value ([2]; DIO mice, 1.0 nmol/kg group, baseline Day 0 (30-day study), mean ± SEM) was 70.0 ± 1.9 grams. The “Absolute BW Day 31” value [2, 5] was 50.9 ± 2.2 grams, the “Change in BW Day 31” value [2, 5] was −23.9 ± 2.6% and the “Cumulative food intake Day 31” value ([2]; DIO mice, 1.0 nmol/kg s.c. once daily, 30 days, mean ± SEM, n = 2) was 60.4 ± 4.5 grams. The “Absolute BW Day 0” value ([2]; DIO mice, 3.0 nmol/kg group, baseline Day 0 (10-day study), mean ± SEM, n = 8) was 63.8 ± 0.8 grams, the “Absolute BW Day 0” value ([2]; DIO mice, 3.0 nmol/kg group, baseline Day 0 (30-day study), mean ± SEM) was 65.8 ± 1.4 grams and the “Cumulative food intake Day 10” value ([2]; DIO mice, 3.0 nmol/kg s.c. once daily, 10 days, mean ± SEM, n = 2) was 8.3 ± 1.0 grams. For the same compound, the “Absolute BW Day 10” value [2, 6] was 51.3 ± 0.9 grams, the “Change in BW Day 10” value [2, 6] was −19.6 ± 0.7% and the “Absolute BW Day 31” value [2, 7] was 40.0 ± 2.4 grams. For the same compound, the “Change in BW Day 31” value [2, 7] was −39.1 ± 3.8%, the “Cumulative food intake Day 31” value ([2]; DIO mice, 3.0 nmol/kg s.c. once daily, 30 days, mean ± SEM, n = 2) was 46.4 ± 6.6 grams and the “Response on food intake, body weight and glucose tolerance (in words)” value ([2]; DIO mice, 0.3, 1.0 or 3.0 nmol/kg s.c. daily for 30 days) was “dose-dependent response”. For the same compound, the pEC50 (mouse GLP-1 receptor) was 11.60 and the pEC50 (human glucagon receptor) was under 8.00.
“Human GLP-1(7-37) (from UniProt P01275 98-128) (ligand)” showed a mGLP-1R, CRE Luc EC50 [3] of 3.5 pM.
